Measurements from PMC9958137, “The cofactor-dependent folding mechanism of Drosophila cryptochrome revealed by single-molecule pulling experiments” (Nature Communications, 2023).

Biological target: T1, dCRY (Drosophila cryptochrome) (Drosophila melanogaster, UniProt O77059)
T1 construct: gene cry; full length, 542 residues; His6, N-terminal Avi tag (biotinylated) and C-terminal ybbR tag (DNA handle) kept; 558 residues with engineered linkers; FAD dialysed out for apo; only genus Drosophila given
T1 sequence (O77059 whole entry): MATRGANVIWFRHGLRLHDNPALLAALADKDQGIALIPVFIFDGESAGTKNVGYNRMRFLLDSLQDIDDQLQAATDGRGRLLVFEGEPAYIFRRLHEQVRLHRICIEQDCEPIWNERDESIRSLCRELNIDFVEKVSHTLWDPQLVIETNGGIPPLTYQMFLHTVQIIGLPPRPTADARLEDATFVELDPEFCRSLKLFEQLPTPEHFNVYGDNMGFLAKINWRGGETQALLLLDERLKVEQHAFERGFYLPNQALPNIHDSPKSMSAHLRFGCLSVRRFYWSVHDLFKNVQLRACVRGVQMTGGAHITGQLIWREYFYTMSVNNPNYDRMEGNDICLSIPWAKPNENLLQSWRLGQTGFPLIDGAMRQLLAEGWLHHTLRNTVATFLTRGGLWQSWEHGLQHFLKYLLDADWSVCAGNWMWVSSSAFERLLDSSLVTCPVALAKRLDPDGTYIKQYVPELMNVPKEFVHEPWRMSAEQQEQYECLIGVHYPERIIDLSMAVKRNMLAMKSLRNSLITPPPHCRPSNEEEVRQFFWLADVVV
Test: single-molecule optical tweezers, ligand-promoted refolding
Assay type: binding
Settings: 0.1 mM ligand, FAD dialysed out; refolding 20 s at 1 pN; pH 8.0; no Mg2+

Row | Compound | % fully folded events at 0.1 mM
1 | Cc1cc2nc3c(=O)[nH]c(=O)nc-3n(C[C@H](O)[C@H](O)[C@H](O)CO)c2cc1C [riboflavin] | 39%
2 | Cc1cc2nc3c(=O)[nH]c(=O)nc-3n(C[C@H](O)[C@H](O)[C@H](O)COP(=O)(O)O)c2cc1C [FMN] | 84%
3 | Nc1ncnc2c1ncn2[C@@H]1O[C@H](COP(=O)(O)O)[C@@H](O)[C@H]1O [AMP] | 24%
4 | Nc1ncnc2c1ncn2[C@@H]1O[C@H](CO)[C@@H](O)[C@H]1O [adenosine] | 20%
5 | Nc1ncnc2c1ncn2[C@@H]1O[C@H](COP(=O)(O)OP(=O)(O)O)[C@@H](O)[C@H]1O [ADP] | 9%

Biological target: T1, dCRY (Drosophila cryptochrome)
Test: single-molecule optical tweezers, FAD titration of fully folded fraction
Assay type: binding
Settings: read-out: Kd,app

Row | Compound | Kd
6 | Cc1cc2nc3c(=O)[nH]c(=O)nc-3n(C[C@H](O)[C@H](O)[C@H](O)COP(=O)(O)OP(=O)(O)OC[C@H]3O[C@@H](n4cnc5c(N)ncnc54)[C@H](O)[C@@H]3O)c2cc1C [FAD] | 0.11 ± 0.01 nM
